Where two headings read alike, the source gives them in different places. Marks after values point to notes of the source that are not given here.
Legend:
T-cells = experiment: T-cell rosette assay; assay type: cell-based; details: 10^6 cells per ml
T cells = experiment: Intracellular cAMP in T cells; assay type: cell-based
[1] = Acute radiation sickness, 6 months after accident, blood parameters; assay type: in vivo, human; details: after therapy with IM862
Description: The patients described above in Example 47 were tested for blood parameters after 6 months of treatment immediately following exposure to the radiation caused by the Chernobyl accident.

[2] = Cancer patients after radiation and chemo-therapy; assay type: in vivo, human; details: IM862 100 μg daily 10 days, 246 patients
Source text: If it vas determined necessary based on immunological indices, the treatment regimen was repeated in 4-6 months.

[3] = Resistance to excessive solar radiation in hot marine climates; assay type: in vivo, human; details: IM862 intranasally 100 μg 3 days, 27 persons
Description: The control group comprised 24 persons. The administration was intranasally 100 μg for 3 days. […] There was also noted suppression of their immunologic indices.

[4] = Immune system of guinea pigs after radiation exposure (thymus, lymph node, spleen, blood); assay type: in vivo
Source text: Seventy-two of the animals were irradiated with total radiation dose was 1 Gr. […] The selected doses were optimal in stimulating an immune response to ram erythrocytes. Control irradiated and non-irradiated animals (24 guinea pigs to each group) were given saline solution per an analogous schedule. At 5, 10, and 20 days after irradiation the animals were destroyed (8 guinea pigs from each group). The thymus, spleen, and lymph nodes of each animal were extracted and their weight coefficients computed. The number of karyocytes, T-, B-, and O-lymphocytes in each organ was determined. Also, the functional activity of blood lymphocytes in the leukocyte migration inhibition reaction to Con A was assessed and the content of cation proteins in the neutrophils was determined.

hemorrhagic Dengue Fever = experiment: Hemorrhagic Dengue Fever study, duration of symptoms; assay type: in vivo, human; details: IM862 administered
Description: All those examined were representatives of organized collectives and had the same type of working and living conditions prior to the onset of illness. The patients were referred to in-patient treatment to the 175th Military Hospital in Ho Chi Minh City during an epidemic of Dengue fever in southern Socialist Republic of Vietnam.
Diagnoses of HDF were established by criteria recommended by the WHO (1986). Serological analyses were performed at the Arbovirus Infections Laboratory of the Pasteur Institute (Ho Chi Minh City). Disease severity was 1-2 in all patients.
The patients were divided into one group treated with IM862 and one group not receiving IM862. […] The efficacy of therapy was determined by observation of the duration of the most frequently encountered signs and symptoms of the disease (Table 14).

[5] = Psoriasis study (Example 108); assay type: in vivo, human; details: during treatment
Description: A comparative study of immunological, coagulation, and acute phase protein parameters was conducted on 30 patients with disseminated forms of psoriasis on normal treatment. Twenty-seven patients had widespread lesions of the smooth skin and scalp; two had psoriatic erythroderma. The period of illness in the majority of those examined exceeded 5 years. In two persons the nail plates were involved in the form of a “thimble” symptom.
Patients were treated under identical conditions and received therapy of vitamins B12, B6, and A, folic acid, pyrogens, sedatives, and desensitizing preparations. Salidol ointment and 3-5% sulfur-salicylic ointments were used locally.
Basic immunological and coagulation assays were conducted on all patients. The findings obtained were compared with the results of investigations done on healthy people between the ages of 18-40 years. […] At the same time, a drop is noted in the quantity of T-lymphocytes, a decrease in the level of T-helpers and suppressors, and a growth in the concentrations of IgA, M, and to a lesser degree, IgG.

[6] = system: methicillin-resistant Staphylococcal aureus
Description: Animals were inoculated intraperitoneally with 10×LD of Staphylococcal aureus suspended in brain-heart infusion broth containing 5 percent mucin. The antibiotic was administered s.c., i.p., or p.o., one hour following bacterial inoculation and deaths occurring during the subsequent three days are recorded.
Two control experiments were conducted. […] The number of survivors at 72 hours was determined. […] The number of survivors at 72 hours was again recorded.
Test mice were divided into 3 groups.

[7] = 20 days after irradiation, IM862 0.01 mg/kg daily for 5 days
[8] = Group 2: IM862 0.01 mg/kg 3 days before inoculation, ampicillin control (0), 5 test animals, 72 hours
[9] = Group 3: IM862 0.01 mg/kg 3 days + ampicillin 100 mg/kg 1 hr, 5 test animals, 72 hours
[10] = Group 4: IM862 0.01 mg/kg 3 days + ampicillin 10 mg/kg 1 hr, 5 test animals, 72 hours
[11] = Group 5: IM862 0.01 mg/kg 3 days + ampicillin 1 mg/kg 1 hr, 5 test animals, 72 hours
[12] = Group 6: IM862 0.001 mg/kg 3 days + ampicillin 100 mg/kg 1 hr, 5 test animals, 72 hours
[13] = Group 7: IM862 0.001 mg/kg 3 days + ampicillin 10 mg/kg 1 hr, 5 test animals, 72 hours
[14] = Group 8: IM862 0.001 mg/kg 3 days + ampicillin 1 mg/kg 1 hr, 5 test animals, 72 hours

Glu-Trp [IM862]
concentration of peak effect for rosette activity (T-cells): approximately 0.0006 mcg/ml
intracellular cAMP concentrations (T cells): an increase of intracellular cAMP concentrations is observed
B-Ig+, % [1]: 19.0 ± 1.3 %
B-Ig+, abs [1]: 0.29 ± 0.03 10^9/liter
B-IgA+, % [1]: 1.8 ± 0.3%
B-IgA+, abs [1]: 0.030 ± 0.002 10^9/liter
B-IgG+, % [1]: 6.4 ± 0.5 %
B-IgG+, abs [1]: 0.100 ± 0.007 10^9/liter
B-IgM+, % [1]: 8.8 ± 0.7%
B-IgM+, abs [1]: 0.13 ± 0.02 10^9/liter
CD2, % [1]: 49 ± 3 %
CD3, % [1]: 53.4 ± 1.8 %
CD3, abs [1]: 0.82 ± 0.04** 10^9/liter
CD4, % [1]: 32.6 ± 1.4 %
CD4, abs [1]: 0.50 ± 0.04* 10^9/liter
CD19, % [1]: 26.7 ± 2.1%
CD19, abs [1]: 0.041 ± 0.03** 10^9/liter
CDS, % [1]: 21.2 ± 1.8%
CDS, abs [1]: 0.32 ± 0.03 10^9/liter
IgA [1]: 1.8 ± 0.9 g/L
IgG [1]: 10.9 ± 1.1 g/L
IgM [1]: 1.07 ± 0.09 g/L
LMI [1]: 72.7 ± 4.5
Lymphocytes % [1]: 30.0 ± 1.8%
Lymphocytes, abs [1]: 1.52 ± 0.12* 10^9/liter
T4/T8 [1]: 1.54 ± 0.11
clinical effect [2]: normalization of immunological indices
clinical effect [3]: prevented the occurrence of upper respiratory infections
cation protein count in the blood neutrophils ([4]; 10 and 20 days after irradiation): normalized at 10 and 20 days after irradiation
Lymph Node: B-lymphocytes % [4, 7]: 3.5 ± 0.6^x %
Lymph Node: B-lymphocytes ×10^3/mg [4, 7]: 9.2 ± 0.9^x ×10^3/mg
Lymph Node: Lymphocytes ×10^3/mg [4, 7]: 242.5 ± 31.3^xx ×10^3/mg
Lymph Node: O-lymphocytes % [4, 7]: 84.4 ± 12.3%
Lymph Node: O-lymphocytes ×10^3/mg [4, 7]: 204.6 ± 33.4^xx ×10^3/mg
Lymph Node: T-lymphocytes % [4, 7]: 12.3 ± 0.9%
Lymph Node: T-lymphocytes ×10^3/mg [4, 7]: 29.9 ± 2.2^xx ×10^3/mg
Lymph Node: Weight coefficient [4, 7]: 0.31 ± 0.03 g/kg
Lymph Node: “Active” T-lymphocytes % [4, 7]: 10.3 ± 1.4%
Lymph Node: “Active” T-lymphocytes ×10^3/mg [4, 7]: 24.9 ± 3.7^xx ×10^3/mg
Splenic: B-lymphocytes % [4, 7]: 27.1 ± 2.6%
Splenic: B-lymphocytes ×10^3/mg [4, 7]: 81.6 ± 9.3 ×10^3/mg
Splenic: Lymphocytes ×10^3/mg [4, 7]: 260.4 ± 32.3^xx ×10^3/mg
Splenic: O-lymphocytes % [4, 7]: 57.4 ± 6.7%
Splenic: O-lymphocytes ×10^3/mg [4, 7]: 149.4 ± 15.9^x ×10^3/mg
Splenic: T-lymphocytes % [4, 7]: 17.4 ± 1.2%
Splenic: T-lymphocytes ×10^3/mg [4, 7]: 45.4 ± 4.1^xx ×10^3/mg
Splenic: Weight coefficient [4, 7]: 1.26 ± 0.9 g/kg
Splenic: “Active” T-lymphocytes % [4, 7]: 11.1 ± 2.0%
Splenic: “Active” T-lymphocytes ×10^3/mg [4, 7]: 28.9 ± 3.9^xx ×10^3/mg
Thymic: B-lymphocytes % [4, 7]: 0.9 ± 0.08^xx %
Thymic: B-lymphocytes ×10^3/mg [4, 7]: 3.7 ± 0.4 ×10^3/mg
Thymic: Lymphocytes ×10^3/mg [4, 7]: 423.3 ± 40.4^xx ×10^3/mg
Thymic: O-lymphocytes % [4, 7]: 17.9 ± 0.8%
Thymic: O-lymphocytes ×10^3/mg [4, 7]: 75.4 ± 8.6^xx ×10^3/mg
Thymic: T-lymphocytes % [4, 7]: 81.3 ± 9.3%
Thymic: T-lymphocytes ×10^3/mg [4, 7]: 342.8 ± 30.4^xx ×10^3/mg
Thymic: Weight coefficient g/kg [4, 7]: 0.81 ± 0.8^xx g/kg
Thymic: “Active” T-lymphocytes % [4, 7]: 57.6 ± 6.2^xx %
Thymic: “Active” T-lymphocytes ×10^3/mg [4, 7]: 242.6 ± 26.8^xx ×10^3/mg
percent of leukocyte migration (blood lymphocytes, Con A) ([4]; irradiated guinea pigs, 5 and 20 days after irradiation): normalized this index by 20 days after radiation exposure
Duration of Abdominal pain (hemorrhagic Dengue Fever): 7.7 ± 1.1 days
Duration of Anorexia (hemorrhagic Dengue Fever): 7.5 ± 0.8 days
Duration of Headaches (hemorrhagic Dengue Fever): 8.1 ± 0.9 days
Duration of Hepatomegaly (hemorrhagic Dengue Fever): 11.3 ± 0.8 days
Duration of Insomnia (hemorrhagic Dengue Fever): 7.1 ± 0.7 days
Duration of Joint pain (hemorrhagic Dengue Fever): 7.4 ± 0.7 days
Duration of Low back pain (hemorrhagic Dengue Fever): 8.1 ± 0.8 days
Duration of Lumbar pain (hemorrhagic Dengue Fever): 8.7 ± 0.7 days
Duration of Ophthalmalgia (hemorrhagic Dengue Fever): 6.6 ± 0.8 days
Duration of Splenomegaly (hemorrhagic Dengue Fever): 9.6 ± 0.7 days
Duration of Weakness/fatigue (hemorrhagic Dengue Fever): 9.3 ± 0.8 days
Duration of Fever, Prescription 2-4 days (hemorrhagic Dengue Fever; total dose 500 μg): 4.7 ± 0.2 days
Duration of Fever, Prescription 2-6 days (hemorrhagic Dengue Fever; total dose 500 μg): 5.2 ± 0.3 days
clinical status and immunological parameters [5]: improvement in clinical status and normalization of immunological parameters
Survivors ([6]; 0.01 mg/kg IM862 3 days prior to bacterial inoculum, no antibiotic): Four of 5 animals survived
Percent ip Survivors [6, 8]: 80%
Survivors [6, 8]: 4
Percent ip Survivors [6, 9]: 100%
Survivors [6, 9]: 5
Percent ip Survivors [6, 10]: 100%
Survivors [6, 10]: 5
Percent ip Survivors [6, 11]: 100%
Survivors [6, 11]: 5
Percent ip Survivors [6, 12]: 100%
Survivors [6, 12]: 5
Percent ip Survivors [6, 13]: 100%
Survivors [6, 13]: 5
Percent ip Survivors [6, 14]: 100%
Survivors [6, 14]: 5

— patent publication US20030198617A1, “Pharmaceutical tryptophan containing dipeptide compositions and methods of use thereof” (priority 1993, published 2003)
